Results: PubChem BioAssay (NCI)
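Briefly, cells in 96-well plates were exposed to five compound concentrations for 48 h, and endpoints were estimated by linear interpolation. Here, GI50 denotes the concentration required for 50% inhibition of growth. The concentration for full growth arrest is given as TGI.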

Key:
Assay in all cases: NCI tumour cell line growth inhibition, 48 h
[1] = tested on: CAKI-1 renal
[2] = tested on: OVCAR-3 ovarian
[3] = tested on: K-562 leukemia
[4] = tested on: SK-MEL-28 melanoma
[5] = tested on: NCI/ADR-RES ovarian
[6] = tested on: UACC-257 melanoma
[7] = tested on: SK-MEL-2 melanoma
[8] = tested on: HOP-92 NSCLC
[9] = tested on: HL-60(TB) leukemia
[10] = tested on: NCI-H226 lung
[11] = tested on: COLO 205 colon
[12] = tested on: SF-539 CNS
[13] = tested on: SF-268 CNS
[14] = tested on: IGROV1 ovarian
[15] = tested on: SN12C renal
[16] = tested on: HOP-62 NSCLC
[17] = tested on: UACC-62 melanoma
[18] = tested on: RXF 393 renal
[19] = tested on: NCI-H23 lung
[20] = tested on: ACHN renal
[21] = tested on: BT-549 breast
[22] = tested on: SNB-19 CNS
[23] = tested on: DU-145 prostate
[24] = tested on: MOLT-4 leukemia
[25] = tested on: UO-31 renal
[26] = tested on: HCT-116 colon
[27] = tested on: M14 melanoma
[28] = tested on: HCC-2998 colon
[29] = tested on: A498 renal
[30] = tested on: MDA-MB-231 breast
[31] = tested on: PC-3 prostate
[32] = tested on: HS 578T breast
[33] = tested on: MALME-3M melanoma
[34] = tested on: OVCAR-8 ovarian
[35] = tested on: SR leukemia
[36] = tested on: SW-620 colon
[37] = tested on: U251 CNS
[38] = tested on: RPMI-8226 leukemia
[39] = tested on: NCI-H522 lung
[40] = tested on: SK-OV-3 ovarian
[41] = tested on: SK-MEL-5 melanoma
[42] = tested on: TK-10 renal
[43] = tested on: HCT-15 colon
[44] = tested on: MDA-MB-435
[45] = tested on: KM12 colon
[46] = tested on: SNB-75 CNS
[47] = tested on: SF-295 CNS
[48] = tested on: OVCAR-4 ovarian
[49] = tested on: EKVX NSCLC
[50] = tested on: 786-0 renal
[51] = tested on: HT29 colon
[52] = tested on: CCRF-CEM leukemia
[53] = tested on: MCF7 breast
[54] = tested on: NCI-H460 lung
[55] = tested on: T-47D breast
[56] = tested on: OVCAR-5 ovarian
[57] = tested on: LOX IMVI melanoma
[58] = tested on: A549 NSCLC

C[C@H](c1ccc(F)cc1CCCC(=O)O)N(c1cc(F)ccc1F)S(=O)(=O)c1ccc(Cl)cc1
GI50 [1]: 17.6 µM
TGI [1]: > 81.2 µM
GI50 [2]: 19.6 µM
TGI [2]: 44 µM
GI50 [3]: 36.6 µM
TGI [3]: > 100 µM
GI50 [4]: 22.1 µM
TGI [4]: 65.5 µM
GI50 [5]: 30.6 µM
TGI [5]: > 100 µM
GI50 [6]: 26.9 µM
TGI [6]: > 100 µM
GI50 [7]: 19.7 µM
TGI [7]: 41.7 µM
GI50 [8]: 17.9 µM
TGI [8]: > 82.5 µM
GI50 [9]: 30.7 µM
TGI [9]: > 95.1 µM
GI50 [10]: 31 µM
TGI [10]: > 100 µM
GI50 [11]: 33.7 µM
TGI [11]: > 92.9 µM
GI50 [12]: 24.5 µM
TGI [12]: 67.9 µM
GI50 [13]: 34.5 µM
TGI [13]: > 100 µM
GI50 [14]: 31.7 µM
TGI [14]: > 92.4 µM
GI50 [15]: 32.2 µM
TGI [15]: > 100 µM
GI50 [16]: 24.4 µM
TGI [16]: > 70.2 µM
GI50 [17]: 14.2 µM
TGI [17]: 39.2 µM
GI50 [18]: 21 µM
TGI [18]: > 79.7 µM
GI50 [19]: 19.6 µM
TGI [19]: 59 µM
GI50 [20]: 30.8 µM
TGI [20]: > 100 µM
GI50 [21]: 22.4 µM
TGI [21]: 68.8 µM
GI50 [22]: 27.9 µM
TGI [22]: > 100 µM
GI50 [23]: 34 µM
TGI [23]: > 100 µM
GI50 [24]: 22.8 µM
TGI [24]: > 83 µM
GI50 [25]: 25.4 µM
TGI [25]: > 100 µM
GI50 [26]: 19.4 µM
TGI [26]: 47.1 µM
GI50 [27]: 22.6 µM
TGI [27]: > 80.2 µM
GI50 [28]: 20.9 µM
TGI [28]: 59.4 µM
GI50 [29]: 13.1 µM
TGI [29]: 57.6 µM
GI50 [30]: 31.4 µM
TGI [30]: > 100 µM
GI50 [31]: 26.5 µM
TGI [31]: > 100 µM
GI50 [32]: 20 µM
TGI [32]: > 85 µM
GI50 [33]: 23.5 µM
TGI [33]: 93.8 µM
GI50 [34]: 38 µM
TGI [34]: > 100 µM
GI50 [35]: 30.4 µM
TGI [35]: 98.1 µM
GI50 [36]: 34.6 µM
TGI [36]: > 100 µM
GI50 [37]: 31.9 µM
TGI [37]: > 100 µM
GI50 [38]: 30 µM
TGI [38]: > 88.5 µM
GI50 [39]: 26 µM
TGI [39]: > 93.3 µM
GI50 [40]: 42.3 µM
TGI [40]: > 100 µM
GI50 [41]: 17.5 µM
TGI [41]: 38 µM
GI50 [42]: 55.3 µM
TGI [42]: > 100 µM
GI50 [43]: 22.3 µM
TGI [43]: 74.7 µM
GI50 [44]: 20.6 µM
TGI [44]: 51.3 µM
GI50 [45]: 26.5 µM
TGI [45]: > 100 µM
GI50 [46]: 29.4 µM
TGI [46]: > 91.3 µM
GI50 [47]: 23.1 µM
TGI [47]: > 75.9 µM
GI50 [48]: 26.8 µM
TGI [48]: > 89.9 µM
GI50 [49]: 30 µM
TGI [49]: > 100 µM
GI50 [50]: 31.2 µM
TGI [50]: > 100 µM
GI50 [51]: 35.3 µM
TGI [51]: > 100 µM
GI50 [52]: 19.3 µM
TGI [52]: > 69.7 µM
GI50 [53]: 31.2 µM
TGI [53]: > 100 µM
GI50 [54]: 20.6 µM
TGI [54]: 52.8 µM
GI50 [55]: 19.2 µM
TGI [55]: > 83.9 µM
GI50 [56]: 43.8 µM
TGI [56]: > 100 µM
GI50 [57]: 29.2 µM
TGI [57]: > 100 µM
GI50 [58]: 28.1 µM
TGI [58]: > 100 µM
